Laboratory results from US10639284B2, “Immunomodulator compounds” (CHEMOCENTRYX, INC., priority 2016, dated 2020).

What follows are molecules tested against human PD-L1 / Human PD-1 (Homo sapiens (Human), UniProt Q9NZQ7) (assay: Enzyme-Linked Immunosorbent Assay (ELISA), PD-1/PD-L1 binding). Conditions: Table 2; plate-coated human PD-L1, biotinylated human PD-1; read-out: ELISA IC50.
In short: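 Human PD-L1 coated at 1 μg/mL overnight at 4° C; samples diluted 1:5 and incubated with human PD-1 and biotin (0.3 μg/mL) for 1 h at 37° C. Bound PD-1 detected with streptavidin-HRP and TMB (20 min, 37° C), acid-stopped, absorbance at 450 nm.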

human PD-L1 / Human PD-1, sequence (Q9NZQ7 19-239): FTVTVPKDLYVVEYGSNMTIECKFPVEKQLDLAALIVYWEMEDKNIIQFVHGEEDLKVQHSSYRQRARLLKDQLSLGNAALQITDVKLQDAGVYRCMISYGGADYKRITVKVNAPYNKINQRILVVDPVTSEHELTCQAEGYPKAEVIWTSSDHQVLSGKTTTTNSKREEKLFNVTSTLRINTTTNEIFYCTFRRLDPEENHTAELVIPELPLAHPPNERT

For `N#Cc1cncc(COc2cc(O[C@H]3CCc4c(-c5ccccc5F)cccc43)c(Cl)cc2CN[C@@H](CCC(=O)O)C(=O)O)c1` [Example 2.117], which IC50 is on record?
Its IC50 is less than 100 nM.

With `Cc1ccc(-c2cccc3c2CC[C@@H]3Oc2cc(OCc3cncc(C#N)c3)c(CN[C@@H](CO)C(=O)O)cc2Cl)c(F)c1` [Example 2.068] as the molecule, how does the IC50 read?
Its IC50 is 100 to 500 nM.

How did the IC50 turn out when `N#Cc1cncc(COc2cc(O[C@H]3CCc4c(-c5ccc6c(c5F)OCCO6)cccc43)c(Cl)cc2CN2CCC(O)CC2)c1` [Example 2.058] was run?
The IC50 was less than 100 nM.

Which IC50 does the source give for `COc1ccc(F)c(-c2cccc3c2CC[C@@H]3Oc2cc(OCc3cncc(C#N)c3)c(CN[C@@H](CO)C(=O)O)cc2Cl)c1` [Example 2.045] here?
Its IC50 is less than 100 nM.

With `CCOc1cc(O[C@H]2CCc3c(-c4ccccc4F)cccc32)c(Cl)cc1CN[C@@H](C)C(=O)O` [Example 2.153] as the molecule, how does the IC50 read?
Its IC50 is 100 to 500 nM.

`N#Cc1cncc(COc2cc(O[C@H]3CCc4c(-c5ccccc5F)cccc43)c(Cl)cc2CN2CC3(CC(O)C3)C2)c1` [Example 2.119] was tested. Which IC50 did it give?
The IC50 was 100 to 500 nM.

With `O=C(O)[C@H](CO)NCc1cc(Cl)c(O[C@H]2CCc3c(-c4ccccc4F)cccc32)cc1OCc1cnc(Cl)nc1` [Example 2.084] as the molecule, how does the IC50 read?
The IC50 was less than 100 nM.

Which IC50 does the source give for `N#Cc1cncc(COc2cc(O[C@H]3CCc4c(-c5cccc(F)c5)cccc43)c(Cl)cc2CN[C@@H](CO)C(=O)O)c1` [Example 2.010] here?
The IC50 was less than 100 nM.

With `N#Cc1cncc(COc2cc(O[C@H]3CCc4c(-c5cc(C#N)ccc5F)cccc43)c(Cl)cc2CN[C@@H](CO)C(=O)O)c1` [Example 2.062] as the molecule, how does the IC50 read?
Its IC50 is 500 to 20000 nM.

`COc1cccc(-c2cccc3c2CCC3Oc2cc(OCc3cncc(C#N)c3)c(CNCCC(N)=O)cc2Cl)c1F` (centres unmarked) [Example 2.080] was tested. Which IC50 did it give?
Its IC50 is 100 to 500 nM.

Which IC50 does the source give for `N#Cc1cncc(COc2cc(O[C@H]3CCc4c(-c5ccccc5F)cccc43)c(Cl)cc2CN2CC[C@H](O)[C@@H](F)C2)c1` [Example 2.114] here?
The IC50 was 500 to 20000 nM.

For `N#Cc1cncc(COc2cc(O[C@H]3CCc4c(-c5ccccc5F)cccc43)c(Cl)cc2CNC2(C(=O)O)CCCC2)c1` [Example 2.165], which IC50 is on record?
Its IC50 is less than 100 nM.

`CCOc1cc(O[C@H]2CCc3c(-c4ccccc4F)cccc32)c(Cl)cc1CN[C@H](CO)C(=O)O` [Example 2.156] was tested. Which IC50 did it give?
Its IC50 is 100 to 500 nM.

`N#Cc1cncc(COc2cc(O[C@H]3CCc4c(-c5cccc(OC(F)(F)F)c5F)cccc43)c(Cl)cc2CN[C@@H](CO)C(=O)O)c1` [Example 2.069] was tested. Which IC50 did it give?
Its IC50 is 500 to 20000 nM.

`COc1cccc(-c2cccc3c2CC[C@@H]3Oc2cc(OCc3cncc(C#N)c3)c(CNCCS(N)(=O)=O)cc2Cl)c1F` [Example 2.078] was tested. Which IC50 did it give?
Its IC50 is 500 to 20000 nM.

Same assay, conditions: Table 3; plate-coated human PD-L1, biotinylated human PD-1; read-out: ELISA IC50

How did the IC50 turn out when `C[C@H](NCc1cc(Cl)c(O[C@H]2CCc3c(-c4ccccc4F)cccc32)cc1OCc1cncc(C#N)c1)C(=O)N[C@@H](C)P(=O)(O)O` [Example 3.086] was run?
The IC50 was less than 100 nM.

`N#Cc1cncc(COc2cc(O[C@H]3CCc4c(-c5ccccc5F)cccc43)c(Cl)cc2CN2C[C@H](O)[C@@H](O)[C@H](O)[C@H]2CO)c1` [Example 3.073] was tested. Which IC50 did it give?
Its IC50 is 500 to 20000 nM.

For `CCN(CC)CCCC(C)NCc1cc(Cl)c(O[C@H]2CCc3c(-c4ccccc4F)cccc32)cc1OCc1cncc(C#N)c1` (some centres unmarked) [Example 3.074], which IC50 is on record?
The IC50 was less than 100 nM.

With `Cc1cc2cc(CNCc3cc(Cl)c(O[C@H]4CCc5c(-c6ccccc6F)cccc54)cc3OCc3cncc(C#N)c3)ccc2[nH]1` [Example 3.087] as the molecule, how does the IC50 read?
Its IC50 is 500 to 20000 nM.

How did the IC50 turn out when `Cc1cc(C#N)cc(COc2cc(O[C@H]3CCc4c(-c5ccccc5F)cccc43)c(Cl)cc2CN[C@@H](CO)C(=O)O)c1` [Example 3.055] was run?
The IC50 was 100 to 500 nM.

With `CC(C)(C)OC(=O)[C@H](CO)NCc1cc(Cl)c(O[C@H]2CCc3c(-c4ccccc4F)cccc32)cc1OCc1cncc(C#N)c1` [Example 3.136] as the molecule, how does the IC50 read?
Its IC50 is 500 to 20000 nM.

With `N#Cc1cncc(COc2cc(O[C@@H]3CCc4c(-c5ccccc5F)cccc43)c(Cl)cc2CN[C@H](CO)C(=O)O)c1` [Example 3.069] as the molecule, how does the IC50 read?
The IC50 was less than 100 nM.

How did the IC50 turn out when `N#Cc1cncc(COc2cc(O[C@H]3CCc4c(-c5ccccc5F)cccc43)c(Cl)cc2CNC(CO)(CO)CO)c1` [Example 3.130] was run?
Its IC50 is less than 100 nM.
